Measured values published in patent US6261826A, “Antibiotic TKR2648 and process for producing the same” (Takara Shuzo Co., Ltd., priority 1996, dated 2001).
≈ marks a conversion by molar mass, not a printed value. Entries after “also recorded” stand apart in the source; their conditions may differ.

Columns and labels:
[1] = test system: Aspergillus fumigatus TIMM1776; assay: Minimal inhibitory concentration, liquid medium dilution method; type: cell-based
Protocol: (§1) The antifungal spectra of the above TKR2648 against various microorganisms were determined. Using the liquid medium dilution method, the concentration causing a substantially complete inhibition of fungal growth was determined as minimal inhibitory concentration (μg/ml). In the table, YNBG stands for a medium comprising 0.67% of yeast nitrogen base (manufactured by Difco) and 1.0% of glucose, and BHI stands for a medium comprising 0.5% of brain-heart infusion bouillon (manufactured by Nihon Pharmaceutical).

[2] = test system: Candida albicans TIMM0136; assay: as above; type: cell-based
Protocol: as §1

Candida kefyr TIMM0301 = assay: as above; type: cell-based
Protocol: as §1

[3] = test system: Cryptococcus neoformans TIMM0354; assay: as above; type: cell-based
Protocol: as §1

EL-4 lymphoma cells [4] = assay: Cytotoxicity to EL-4 lymphoma cells, alamarblue-method; type: cell-based
Protocol: (§2) Effect of the above TKR2648 on tumor cells was examined by measuring inhibitory activity of the metastatic ability of tumor cells, which were inoculated into animals after incubation with TKR2648 for several hours. EL-4 lymphoma or B16 melanoma cells were cultured in RPMI 1640 medium containing 10% of fetal calf serum, and various concentrations of TKR2648 were added to the culture of tumor cells. After overnight culture, cytotoxicity of TKR2648 to the cells was determined by alamarblue-method (Biosource International), and the cells treated with TKR2648 were recovered and injected to C57BL/6 (female) mice via tail vein. Ten days after the injection of EL-4, the mice were sacrified and their livers were obtained and weighed to determine metastasizing tumor cells as increase of weight. Fourteen days after the injection of B16 cells, the mice were scarified and their lungs were obtained and counted metastasizing melanoma colonies. […] This means that TKR2648 may be useful as an anticancer agent by inhibiting metastasis properties of tumor cells without affecting of proliferative properties of tumor cells.

B16 melanoma cells [5] = assay: Cytotoxicity to B16 melanoma cells, alamarblue-method; type: cell-based
Protocol: as §2

EL-4 lymphoma cells [6] = assay: Inhibition of metastasis of treated EL-4 cells injected into mice (liver weight); type: in vivo, C57BL/6 (female) mice; settings: for Inhibition of metastasis / Increase of liver weight mean ± SD: ten days after injection; for Increase of liver weight mean ± SD: * p<0.001
Protocol: as §2

B16 melanoma cells [7] = assay: Inhibition of metastasis of treated B16 cells injected into mice (lung colonies); type: in vivo, C57BL/6 (female) mice; settings: for Inhibition of metastasis / Colony number of melanoma mean ± SD: fourteen days after injection; for Colony number of melanoma mean ± SD: lungs
Protocol: as §2

ICR mice = assay: Toxicity, intraperitoneal administration to mice; type: in vivo; settings: 50 mg/kg
Solubility = type: physicochemical
[8] = in words, at concentrations inhibiting metastasis
[9] = EL4 cells treated at 0.156 μg/ml
[10] = EL4 cells treated at 0.313 μg/ml
[11] = EL4 cells treated at 0.625 μg/ml
[12] = in words, at the concentrations showing little cytotoxicity
[13] = B16 cells treated at 0.156 μg/ml
[14] = B16 cells treated at 0.625 μg/ml

CCCCC(=O)OC1CC(OC)=CC(=O)O1 (centres unmarked) [TKR2648]
MIC ([1]; Aspergillus fumigatus, TIMM1776, BHI medium): 6.25 µg/mL (≈ 27.4 µM) | Antifungal activity ([1]; in words): active | MIC ([2]; Candida albicans, TIMM0136, YNBG medium): 100 µg/mL (≈ 438 µM) | Antifungal activity ([2]; in words): active | MIC (Candida kefyr TIMM0301; Kluyveromyces marxianus, TIMM0301, YNBG medium): 50 µg/mL (≈ 219 µM) | Antifungal activity (Candida kefyr TIMM0301; in words): active | MIC ([3]; Cryptococcus neoformans, TIMM0354, YNBG medium): 3.13 µg/mL (≈ 13.7 µM) | Antifungal activity ([3]; in words): active | cytotoxicity at 0.156 µg/mL (EL-4 lymphoma cells [4]; Mus musculus, EL4, 0.156 μg/ml, overnight culture): 4.5% | cytotoxicity at 0.313 µg/mL (EL-4 lymphoma cells [4]; Mus musculus, EL4, 0.313 μg/ml, overnight culture): 15.7% | cytotoxicity at 0.625 µg/mL (EL-4 lymphoma cells [4]; Mus musculus, EL4, 0.625 μg/ml, overnight culture): 35.1% | Cytotoxicity (EL-4 lymphoma cells [4]; [8]): little cytotoxicity | cytotoxicity at 0.156 µg/mL (B16 melanoma cells [5]; Mus musculus, B16, 0.156 μg/ml, overnight culture): 4.5% | cytotoxicity at 0.625 µg/mL (B16 melanoma cells [5]; Mus musculus, B16, 0.625 μg/ml, overnight culture): 14.1% | cytotoxicity at 2.5 µg/mL (B16 melanoma cells [5]; Mus musculus, B16, 2.5 μg/ml, overnight culture): 51.3% | Cytotoxicity (B16 melanoma cells [5]; [8]): little cytotoxicity | Inhibition of metastasis (EL-4 lymphoma cells [6]; [9]): 47.4% | Increase of liver weight mean ± SD (EL-4 lymphoma cells [6]; [9]): 0.630 ± 0.107 g | Inhibition of metastasis (EL-4 lymphoma cells [6]; [10]): 67.4% | Increase of liver weight mean ± SD (EL-4 lymphoma cells [6]; [10]): 0.391 ± 0.148 g | Inhibition of metastasis (EL-4 lymphoma cells [6]; [11]): 89.3% | Increase of liver weight mean ± SD (EL-4 lymphoma cells [6]; [11]): 0.128 ± 0.043 g | Metastasis of EL-4 tumor cells to normal tissues (EL-4 lymphoma cells [6]; [12]): inhibited metastasis | Inhibition of metastasis (B16 melanoma cells [7]; [13]): 9.6% | Colony number of melanoma mean ± SD (B16 melanoma cells [7]; [13]): 58.3 ± 16.3 | Inhibition of metastasis (B16 melanoma cells [7]; [14]): 29.7% | Colony number of melanoma mean ± SD (B16 melanoma cells [7]; [14]): 45.3 ± 3.8 | Inhibition of metastasis (B16 melanoma cells [7]; B16 cells treated at 2.5 μg/ml): 96.4% | Colony number of melanoma mean ± SD (B16 melanoma cells [7]; B16 cells treated at 2.5 μg/ml, * p<0.001): 2.3 ± 2.3 | Metastasis of B16 tumor cells to normal tissues (B16 melanoma cells [7]; [12]): inhibited metastasis | Toxic signs (ICR mice): no toxic signs | Solubility (Solubility; in chloroform): Soluble | Solubility (Solubility; in hexane): practically insoluble; also recorded: sparingly soluble | Solubility (Solubility; in methanol): Soluble | Solubility (Solubility; in water): practically insoluble; also recorded: sparingly soluble
